Laboratory results from patent US8288410B2, “3-substituted quinolinium and 7H-indolo[2,3-c]quinolinium salts as new antiinfectives” (Florida Agricultural and Mechanical University, priority 2008, dated 2012).
Where two headings read alike, the source gives them in different places. Blank lines part the entries; values can stand above or below the molecule they belong to.

Assays:
[1] = test system: Candida albicans ATTC 90028; test: Antifungal susceptibility testing, Candida albicans; assay type: cell-based
Procedure, shortened: (§1)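 Modified NCCLS broth microdilution, samples serially diluted from 20 μg/mL top concentration, inocula per 0.5 McFarland (C. albicans in SDB or RPMI 1640; C. neoformans in SDB; A. fumigatus in YM broth or RPMI-1640 + 5% Alamar Blue). IC50 from percent growth versus concentration; MIC read visually as lowest concentration without detectable growth.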

Vero Cells = test: Cytotoxicity, Vero cells; assay type: cell-based
MRSA = test: Antibacterial susceptibility testing, MRSA; assay type: cell-based, methicillin resistant Staphylococcus aureus
Procedure, shortened: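 MRSA, sourced from the American Type Culture Collection, was tested for susceptibility with a modified National Committee for Clinical Laboratory Standards method. DMSO sample solutions were serially diluted in saline and placed in duplicate in 96 well microplates. Broth-diluted bacterial suspensions, standardized to 0.5 McFarland, brought each well to 200 μL, with the highest test concentration at 20 μg/mL.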

[2] = test system: Aspergillus fumigatus ATCC 90906; test: Antifungal susceptibility testing, Aspergillus fumigatus; assay type: cell-based
Procedure, shortened: as §1

[3] = test system: Cryptococcus neoformans ATCC 90113; test: Antifungal susceptibility testing, Cryptococcus neoformans; assay type: cell-based
Procedure, shortened: as §1

Compound: FC(F)(F)c1cccc(Sc2cc3ccccc3[n+](CCCCCc3ccccc3)c2)c1.[I-] [XYZ-IV-54]
Ca IC50 ([1]; Table 1): 6.0 µg/mL
Ca MFC ([1]; Table 1): — ((-) = >20 μg/mL)
Ca MIC ([1]; Table 1): 10 µg/mL
TC50 Vero Cells (Vero Cells; Table 1): NC (NC = Not toxic at 10 μg/mL)
MRS IC50 (MRSA; Table 1): 0.85 µg/mL
MRS MFC (MRSA; Table 1): 10 µg/mL
MRS MIC (MRSA; Table 1): 2.5 µg/mL
A fu IC50 ([2]; Table 1, Aspergillus fumigatus): 1.5 µg/mL
A fu MFC ([2]; Table 1, Aspergillus fumigatus): — ((-) = >20 μg/mL)
A fu MIC ([2]; Table 1, Aspergillus fumigatus): 5.0 µg/mL
Cn IC50 ([3]; Table 1): 1.5 µg/mL
Cn MFC ([3]; Table 1): 20 µg/mL
Cn MIC ([3]; Table 1): 2.5 µg/mL

Compound: COc1cccc(N(CCCCCC2CCCCC2)c2cc3ccccc3[n+](C)c2)c1.[I-] [JRE-3-69-1]
Ca IC50 ([1]; Table 2): 0.85 µg/mL
Ca MFC ([1]; Table 2): 2.5 µg/mL
Ca MIC ([1]; Table 2): 2.5 µg/mL
TC50 Vero Cells (Vero Cells; Table 2): >10 µg/mL
MRSA IC50 (MRSA; Table 2): 0.50 µg/mL
MRSA MFC (MRSA; Table 2): 1.3 µg/mL
MRSA MIC (MRSA; Table 2): 1.3 µg/mL
A fu MFC [2]: 10 µg/mL
A fu MIC [2]: 1.3 µg/mL
A fu IC50 ([2]; Table 2, Aspergillus fumigatus): 0.70 µg/mL
Cn IC50 ([3]; Table 2): 0.55 µg/mL
Cn MFC ([3]; Table 2): 5.0 µg/mL
Cn MIC ([3]; Table 2): 1.3 µg/mL

Compound: Clc1ccc2c(c1)[nH]c1c[n+](CCCCCC3CCCCC3)c3ccccc3c12.[I-] [JRE-3-10-1]
Ca IC50 ([1]; Table 3): >20 µg/mL
Ca MFC ([1]; Table 3): — ((-) = >20 μg/mL)
Ca MIC ([1]; Table 3): — ((-) = >20 μg/mL)
TC50 Vero Cells (Vero Cells; Table 3): 9.3 µg/mL
MRSA IC50 (MRSA; Table 3): 5.0 µg/mL
MRSA MFC (MRSA; Table 3): — ((-) = >20 μg/mL)
MRSA MIC (MRSA; Table 3): 25 µg/mL
A fu IC50 ([2]; Table 3, Aspergillus fumigatus): >20 µg/mL
Cn IC50 ([3]; Table 3): >20 µg/mL
Cn MFC ([3]; Table 3): — ((-) = >20 μg/mL)
Cn MIC ([3]; Table 3): — ((-) = >20 μg/mL)

Compound: C[n+]1cc2c(c3ccc(Cl)cc3n2CCCCCC2CCCCC2)c2ccccc21.[I-] [JRE-3-84-1]
Ca IC50 ([1]; Table 3): 0.70 µg/mL
Ca MFC ([1]; Table 3): 2.5 µg/mL
Ca MIC ([1]; Table 3): 1.3 µg/mL
TC50 Vero Cells (Vero Cells; Table 3): >10 µg/mL
MRSA IC50 (MRSA; Table 3): 0.80 µg/mL
MRSA MFC (MRSA; Table 3): 1.3 µg/mL
MRSA MIC (MRSA; Table 3): 1.3 µg/mL
A fu MFC [2]: 5.0 µg/mL
A fu MIC [2]: 2.5 µg/mL
A fu IC50 ([2]; Table 3, Aspergillus fumigatus): 1.5 µg/mL
Cn IC50 ([3]; Table 3): 0.80 µg/mL
Cn MFC ([3]; Table 3): 2.5 µg/mL
Cn MIC ([3]; Table 3): 1.3 µg/mL

Compound: C[n+]1cc2c(c3ccccc3n2CCCCCC2CCCCC2)c2ccccc21.[I-] [JRE-3-100-1]
Ca IC50 ([1]; Table 3): 0.80 µg/mL
Ca MFC ([1]; Table 3): 10 µg/mL
Ca MIC ([1]; Table 3): 2.5 µg/mL
TC50 Vero Cells (Vero Cells; Table 3): >10 µg/mL
MRSA IC50 (MRSA; Table 3): 0.70 µg/mL
MRSA MFC (MRSA; Table 3): 1.3 µg/mL
MRSA MIC (MRSA; Table 3): 1.3 µg/mL
A fu MFC [2]: 10 µg/mL
A fu MIC [2]: 5.0 µg/mL
A fu IC50 ([2]; Table 3, Aspergillus fumigatus): 3.5 µg/mL
Cn IC50 ([3]; Table 3): 1.5 µg/mL
Cn MFC ([3]; Table 3): 5.0 µg/mL
Cn MIC ([3]; Table 3): 2.5 µg/mL

Compound: C[n+]1cc2c(c3ccc(C(F)(F)F)cc3n2CCCCCC2CCCCC2)c2ccccc21.[I-] [JRE-5-31-1]
Ca IC50 ([1]; Table 3): 0.80 µg/mL
Ca MFC ([1]; Table 3): — ((-) = >20 μg/mL)
Ca MIC ([1]; Table 3): 1.3 µg/mL
TC50 Vero Cells (Vero Cells; Table 3): >10 µg/mL
MRSA IC50 (MRSA; Table 3): 0.70 µg/mL
MRSA MFC (MRSA; Table 3): 1.3 µg/mL
MRSA MIC (MRSA; Table 3): 1.3 µg/mL
A fu MFC [2]: 10 µg/mL
A fu MIC [2]: 5.0 µg/mL
A fu IC50 ([2]; Table 3, Aspergillus fumigatus): 1.5 µg/mL
Cn IC50 ([3]; Table 3): 0.85 µg/mL
Cn MFC ([3]; Table 3): 2.5 µg/mL
Cn MIC ([3]; Table 3): 1.3 µg/mL

IC50 ([1]; ATTC90028, Table 2, read-out: Ca IC50): 0.8 µg/mL
MIC ([1]; ATTC90028, Table 2, read-out: Ca MIC): 1.3 µg/mL
IC50 (MRSA; Staphylococcus aureus, Table 2, read-out: MRSA IC50): 0.45 µg/mL
MIC (MRSA; Staphylococcus aureus, Table 2, read-out: MRSA MIC): 0.63 µg/mL
A fu MFC [2]: 5.0 µg/mL
A fu MIC [2]: 1.3 µg/mL
IC50 ([2]; ATCC90906, Table 2, Aspergillus fumigatus, read-out: A fu IC50): 0.5 µg/mL
IC50 ([3]; ATCC90113, Table 2, read-out: Cn IC50): 0.45 µg/mL
MIC ([3]; ATCC90113, Table 2, read-out: Cn MIC): 0.63 µg/mL
Compound: C[n+]1cc(N(CCCCCC2CCCCC2)c2ccsc2)cc2ccccc21 [EVK-II-091]
MFC ([1]; ATTC90028, Table 2, read-out: Ca MFC): > 20 µg/mL
TC50 Vero Cells (Vero Cells; Table 2): >10 µg/mL
MFC ([3]; ATCC90113, Table 2, read-out: Cn MFC): 5 µg/mL

Compound: C[n+]1cc(N(CCCCCC2CCCCC2)c2cccc(C(F)(F)F)c2)cc2ccccc21.[I-] [JRE-3-61-1]
Ca IC50 ([1]; Table 2): 1.0 µg/mL
Ca MFC ([1]; Table 2): 2.5 µg/mL
Ca MIC ([1]; Table 2): 2.5 µg/mL
TC50 Vero Cells (Vero Cells; Table 2): >10 µg/mL
MRSA IC50 (MRSA; Table 2): 0.45 µg/mL
MRSA MFC (MRSA; Table 2): 1.3 µg/mL
MRSA MIC (MRSA; Table 2): 0.63 µg/mL
A fu MFC [2]: 10 µg/mL
A fu MIC [2]: 2.5 µg/mL
A fu IC50 ([2]; Table 2, Aspergillus fumigatus): 1.5 µg/mL
Cn IC50 ([3]; Table 2): 0.85 µg/mL
Cn MFC ([3]; Table 2): 2.5 µg/mL
Cn MIC ([3]; Table 2): 1.3 µg/mL
